Results as given in US12479849B2, “EGFR inhibitors for the treatment of cancer” (Hoffmann-La Roche Inc., priority 2019, dated 2025).

These molecules were tested against T1, EGFR TMLRCS (Homo sapiens, UniProt P00533, C797S/L858R/T790M) (assay: HTRF Phospho EGFR TMLRCS Assay (Cellular)). Conditions: BaF3-TMLRCS cell line, 4 hours incubation, Phospho-EGFR HTRF readout.
T1 construct: host or cells: BaF3-TMLRCS (Ba/F3 cells, kept under puromycin selection)
Format: cell-based
Procedure: HTRF Phospho EGFR TMLRCS Assay (Cellular)
BaF3-TMLRCS cell line were obtained from Crownbio (San Diego, CA, USA). Cells were maintained at 37° C., 5% CO2 in RPMI ATCC (Gibco 31870)+2 mM Glutamine+0.5 μg/ml Puromycin supplemented with 10% fetal bovine serum (FBS) (Gibco).
Cells are transferred as above to Greiner Bio-One, Nr. 784-08 micro-titerplate at 20000 cells/well in 12.5 μl of growth medium/well after the plates had been pre-filled with 12.5 nl of DMSO solutions of the to be tested compounds (in dose response) or DMSO only. After spinning the plates at 300×g for 30 seconds the cells were incubated for 4 hours at 37 C, 5% CO2, 95% humidity. The cells were lysed by adding to the compound mix 4 μl/well of the supplemented lysis buffer (Cis-bio, Phospho-EGFR HTRF kit, 64EG1PEH), followed by incubation for 30 min at room temperature with shaking (400 rpm). The plates were then frozen and stored overnight at −80 C. On the next day and after thawing the plates, 4 μl of a mixture of anti-Phospho-EGFR Cryptate and of anti-Phospho-EGFR-d2 antibody solutions prepared in the supplied detection buffer was added to each well. The lidded plates were then incubated for 4 h at room temperature before reading the fluorescence emission at 616 and 665 nm using an Envision reader (Perkin Elmer). Data was analyzed in similar fashion as above using the normalized ratio of the 665 to 616 signals multiplied by 10000.

T1 sequence (P00533 25-1210 T790M/C797S/L858R): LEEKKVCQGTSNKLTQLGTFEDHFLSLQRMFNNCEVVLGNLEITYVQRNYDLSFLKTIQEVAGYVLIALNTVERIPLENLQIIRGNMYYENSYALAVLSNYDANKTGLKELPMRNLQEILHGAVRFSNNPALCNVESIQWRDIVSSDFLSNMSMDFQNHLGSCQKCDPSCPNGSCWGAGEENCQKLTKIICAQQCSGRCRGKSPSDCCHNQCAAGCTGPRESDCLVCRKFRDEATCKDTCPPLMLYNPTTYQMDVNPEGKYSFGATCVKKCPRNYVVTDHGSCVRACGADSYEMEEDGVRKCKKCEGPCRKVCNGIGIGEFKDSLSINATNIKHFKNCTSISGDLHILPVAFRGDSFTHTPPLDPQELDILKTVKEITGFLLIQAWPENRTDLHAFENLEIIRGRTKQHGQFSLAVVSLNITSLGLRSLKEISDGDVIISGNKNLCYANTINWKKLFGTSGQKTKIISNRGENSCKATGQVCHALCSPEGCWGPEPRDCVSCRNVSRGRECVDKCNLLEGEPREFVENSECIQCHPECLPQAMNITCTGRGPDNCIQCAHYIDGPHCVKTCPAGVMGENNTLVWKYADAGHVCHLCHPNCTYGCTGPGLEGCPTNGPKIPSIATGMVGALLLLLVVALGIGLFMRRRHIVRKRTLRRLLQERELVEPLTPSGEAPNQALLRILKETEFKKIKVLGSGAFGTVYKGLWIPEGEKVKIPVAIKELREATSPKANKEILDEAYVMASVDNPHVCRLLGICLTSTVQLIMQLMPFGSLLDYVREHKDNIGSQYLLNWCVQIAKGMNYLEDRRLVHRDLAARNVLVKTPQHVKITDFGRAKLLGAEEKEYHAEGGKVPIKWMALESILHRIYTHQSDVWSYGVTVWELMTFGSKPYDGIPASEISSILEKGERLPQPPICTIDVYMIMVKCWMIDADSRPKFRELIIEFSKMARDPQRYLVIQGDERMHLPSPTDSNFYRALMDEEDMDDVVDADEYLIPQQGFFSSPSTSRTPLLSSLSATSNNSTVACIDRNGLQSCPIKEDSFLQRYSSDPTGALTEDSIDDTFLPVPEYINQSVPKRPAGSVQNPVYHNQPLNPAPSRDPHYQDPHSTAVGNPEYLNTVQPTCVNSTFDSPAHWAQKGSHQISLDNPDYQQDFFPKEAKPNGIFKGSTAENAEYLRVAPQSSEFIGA

Structure (SMILES)	IC50 [nM]
O=C(Nc1nccs1)C(c1ncn2c1C[C@@H](F)C2)n1cc2c(Cl)cc(-c3ccc(N4CC(CN5CCC(CO)CC5)C4)cc3)c(Cl)c2n1 (mixture of isomers) [Example 59, rac-2-(4,7-Dichloro-6-(4-(3-((4-(hydroxymethyl)piperidin-1-yl)methyl)azetidinyl)phenyl)-2H-indazol-2-yl)-2-((R)-6-fluoro-6,7-dihydro-5H-pyrrolo[1,2-c]imidazol-1-yl)-N-(thiazol-2-yl)acetamide]	5
O=C(Nc1nccs1)C(c1ncn2c1C[C@@H](F)C2)n1cc2c(Cl)cc(-c3ccc(CN4CC5(CC(O)C5)C4)cc3)c(Cl)c2n1 (mixture of isomers) [Example 62, rac-2-(4,7-Dichloro-6-(4-((6-hydroxy-2-azaspiro[3.3]heptan-2-yl)methyl)phenyl)-2H-indazol-2-yl)-2-((R)-6-fluoro-6,7-dihydro-5H-pyrrolo[1,2-c]imidazol-1-yl)-N-(thiazol-2-yl)acetamide]	8
O=C(Nc1nccs1)C(c1ncn2c1C[C@@H](F)C2)n1cc2c(Cl)cc(-c3ccc(CN4CC5(COC5)C4)cc3)c(Cl)c2n1 (mixture of isomers) [Example 63, rac-2-(6-(4-((2-Oxa-6-azaspiro[3.3]heptan-6-yl)methyl)phenyl)-4,7-dichloro-2H-indazol-2-yl)-2-((R)-6-fluoro-6,7-dihydro-5H-pyrrolo[1,2-c]imidazol-1-yl)-N-(thiazol-2-yl)acetamide]	5
O=C(Nc1nccs1)C(c1ncn2c1C[C@@H](F)C2)n1cc2c(Cl)cc(-c3ccc(CCN4CCC(O)CC4)cc3)c(Cl)c2n1 (mixture of isomers) [Example 64, rac-2-(4,7-Dichloro-6-(4-(2-(4-hydroxypiperidin-1-yl)ethyl)phenyl)-2H-indazol-2-yl)-2-((R)-6-fluoro-6,7-dihydro-5H-pyrrolo[1,2-c]imidazol-1-yl)-N-(thiazol-2-yl)acetamide]	7
O=C(Nc1nccs1)C(c1ncn2c1C[C@@H](F)C2)n1cc2c(Cl)cc(-c3ccc(OCCN4CCC(CO)CC4)cc3)c(Cl)c2n1 (mixture of isomers) [Example 68, rac-2-(4,7-Dichloro-6-(4-(2-(4-(hydroxymethyl)piperidin-1-yl)ethoxy)phenyl)-2H-indazol-2-yl)-2-((R)-6-fluoro-6,7-dihydro-5H-pyrrolo[1,2-c]imidazol-1-yl)-N-(thiazol-2-yl)acetamide]	4
O=C(Nc1nccs1)C(c1ncn2c1C[C@@H](F)C2)n1cc2c(Cl)cc(-c3ccc(CCN4CCC(O)C4)cc3)c(Cl)c2n1 (mixture of isomers) [Example 70, rac-2-(4,7-Dichloro-6-(4-(2-(3-hydroxypyrrolidin-1-yl)ethyl)phenyl)-2H-indazol-2-yl) ((R)-6-fluoro-6,7-dihydro-5H-pyrrolo[1,2-c]imidazol-1-yl)-N-(thiazol-2-yl)acetamide]	8
O=C(Nc1nccs1)C(c1ncn2c1C[C@@H](F)C2)n1cc2c(Cl)cc(-c3ccc(N4CCC(CN5CCC(O)C5)CC4)cc3)c(Cl)c2n1 (mixture of isomers) [Example 74, rac-2-(4,7-Dichloro-6-(4-(4-((3-hydroxypyrrolidin-1-yl)methyl)piperidin-1-yl)phenyl)-2H-indazol-2-yl)-2-((R)-6-fluoro-6,7-dihydro-5H-pyrrolo[1,2-c]imidazol-1-yl)-N-(thiazol-2-yl)acetamide]	12
O=C(Nc1nccs1)C(c1ncn2c1C[C@@H](F)C2)n1cc2c(Cl)cc(-c3ccc(C4CC(CN5CCC(CO)CC5)C4)cc3)c(Cl)c2n1 (mixture of isomers) [Example 75, rac-2-(4,7-Dichloro-6-(4-(34(4-(hydroxymethyl)piperidin-1-yl)methyl)cyclobutyl)phenyl)-2H-indazol-2-yl)-2-((R)-6-fluoro-6,7-dihydro-5H-pyrrolo[1,2-c]imidazol-1-yl)-N-(thiazol-2-yl)acetamide]	8
O=C(Nc1nccs1)C(c1ncn2c1C[C@@H](F)C2)n1cc2c(Cl)cc(-c3ccc(C4CC(CN5CCC(O)CC5)C4)cc3)c(Cl)c2n1 (mixture of isomers) [Example 76, rac-2-(4,7-Dichloro-6-(4-(34(4-hydroxypiperidin-1-yl)methyl)cyclobutyl)phenyl)-2H-indazol-2-yl)-2-((R)-6-fluoro-6,7-dihydro-5H-pyrrolo[1,2-c]imidazol-1-yl)-N-(thiazol-2-yl)acetamide]	11
O=C(Nc1nccs1)C(c1ncn2c1C[C@@H](F)C2)n1cc2c(Cl)cc(-c3ccc(OCCN4CCC(O)CC4)cc3)c(Cl)c2n1 (mixture of isomers) [Example 77, rac-2-(4,7-Dichloro-6-(4-(2-(4-hydroxypiperidin-1-yl)ethoxy)phenyl)-2H-indazol-2-yl)-2-((R)-6-fluoro-6,7-dihydro-5H-pyrrolo[1,2-c]imidazol-1-yl)-N-(thiazol-2-yl)acetamide]	1

Second part, the molecule after the results:

IC50 [nM]	Structure (SMILES)
9	CC(O)C1CCN(CCc2ccc(-c3cc(Cl)c4cn(C(C(=O)Nc5nccs5)c5ncn6c5C[C@@H](F)C6)nc4c3Cl)cc2)CC1 (mixture of isomers) [Example 60, rac-2-(4,7-Dichloro-6-(4-(2-(4-(1-hydroxyethyl)piperidin-1-yl)ethyl)phenyl)-2H-indazol-2-yl)-2-((R)-6-fluoro-6,7-dihydro-5H-pyrrolo[1,2-c]imidazol-1-yl)-N-(thiazol-2-yl)acetamide]
3	O=C(Nc1nccs1)C(c1ncn2c1C[C@@H](F)C2)n1cc2c(Cl)cc(-c3ccc(N4CCN(CCO)CC4)cc3)c(Cl)c2n1 (mixture of isomers) [Example 61, rac-2-(4,7-Dichloro-6-(4-(4-(2-hydroxyethyl)piperazin-1-yl)phenyl)-2H-indazol-2-yl)-2-((R)-6-fluoro-6,7-dihydro-5H-pyrrolo[1,2-c]imidazol-1-yl)-N-(thiazol-2-yl)acetamide]
2	O=C(Nc1nccs1)C(c1ncn2c1C[C@@H](F)C2)n1cc2c(Cl)cc(-c3ccc(N4CCN(C5CC(O)C5)CC4)cc3)c(Cl)c2n1 (mixture of isomers) [Example 66, rac-2-(4,7-Dichloro-6-(4-(4-(3-hydroxycyclobutyl)piperazin-1-yl)phenyl)-2H-indazol-2-yl)-2-((R)-6-fluoro-6,7-dihydro-5H-pyrrolo[1,2-c]imidazol-1-yl)-N-(thiazol-2-yl)acetamide]
3	O=C(Nc1nccs1)C(c1ncn2c1C[C@@H](F)C2)n1cc2c(Cl)cc(-c3ccc(N4CCOC(CO)C4)cc3)c(Cl)c2n1 (mixture of isomers) [Example 67, rac-2-(4,7-Dichloro-6-(4-(2-(hydroxymethyl)morpholino)phenyl)-2H-indazol-2-yl)-2-((R)-6-fluoro-6,7-dihydro-5H-pyrrolo[1,2-c]imidazol-1-yl)-N-(thiazol-2-yl)acetamide]
8	CC(O)CN1CCN(c2ccc(-c3cc(Cl)c4cn(C(C(=O)Nc5nccs5)c5ncn6c5C[C@@H](F)C6)nc4c3Cl)cc2)CC1 (mixture of isomers) [Example 71, rac-2-(4,7-Dichloro-6-(4-(4-(2-hydroxypropyl)piperazin-1-yl)phenyl)-2H-indazol-2-yl)-2-((R)-6-fluoro-6,7-dihydro-5H-pyrrolo[1,2-c]imidazol-1-yl)-N-(thiazol-2-yl)acetamide]
5	O=C(Nc1nccs1)C(c1ncn2c1C[C@@H](F)C2)n1cc2c(Cl)cc(-c3ccc(N4CCN5CCC4C5)cc3)c(Cl)c2n1 (mixture of isomers) [Example 72, rac-2-(6-(4-(1,4-Diazabicyclo[3.2.1]octan-4-yl)phenyl)-4,7-dichloro-2H-indazol-2-yl)-2-((R)-6-fluoro-6,7-dihydro-5H-pyrrolo[1,2-c]imidazol-1-yl)-N-(thiazol-2-yl)acetamide]
